In the supplement of paper PMC11061612:

What was measured:
WIL2-NS (Non-Cancerous) [1] = assay: combination Emax (second highest fraction inhibited in the dose matrix, 72 h); higher = more inhibition; extreme values may be limits of the assay
How it was run: (§1)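 After 24 hours at 37°C and 5% CO2 in 1536-well plates, cells in DMEM/F12 or RPMI plus 10% FBS received two-drug dose matrices for 72 hours. Viability came from CellTiter-Glo 2.0 luminescence and was scaled as inhibition, anchored at 0 by vehicle wells and at 1 by blank wells. Combination Emax is taken as the second-highest inhibition in the matrix, and Bliss excess as the observed combination effect less EA + EB − EA·EB, with EA and EB the single-agent effects.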

[2] = tested on: SR (Other Blood Carcinomas); assay: as above
How it was run: as §1

[3] = tested on: K-562 (Chronic Myelogenous Leukemia); assay: as above
How it was run: as §1

NCI-H2818 (Mesothelioma) [4] = assay: as above
How it was run: as §1

ES1 (Ewing's Sarcoma) [5] = assay: as above
How it was run: as §1

[6] = tested on: SW1417 (Colorectal Carcinoma); assay: as above
How it was run: as §1

[7] = tested on: MKN28 (Gastric Carcinoma); assay: as above
How it was run: as §1

[8] = tested on: DND-41 (T-Lymphoblastic Leukemia); assay: as above
How it was run: as §1

[9] = tested on: SW837 (Colorectal Carcinoma); assay: as above
How it was run: as §1

[10] = tested on: GR-ST (B-Lymphoblastic Leukemia); assay: as above
How it was run: as §1

[11] = tested on: BFTC-905 (Bladder Carcinoma); assay: as above
How it was run: as §1

[12] = tested on: CAMA-1 (Breast Carcinoma); assay: as above
How it was run: as §1

[13] = tested on: L-540 (Hodgkin's Lymphoma); assay: as above
How it was run: as §1

[14] = tested on: BL-41 (Burkitt's Lymphoma); assay: as above
How it was run: as §1

ES8 (Ewing's Sarcoma) [15] = assay: as above
How it was run: as §1

WM-115 (Melanoma) [16] = assay: as above
How it was run: as §1

[17] = tested on: NCI-H1792 (Lung Adenocarcinoma); assay: as above
How it was run: as §1

WIL2-NS (Non-Cancerous) [18] = assay: Bliss excess, mean over the matrix (fraction); higher = more synergy
How it was run: as §1

[19] = tested on: SR (Other Blood Carcinomas); assay: as above
How it was run: as §1

[20] = tested on: K-562 (Chronic Myelogenous Leukemia); assay: as above
How it was run: as §1

NCI-H2818 (Mesothelioma) [21] = assay: as above
How it was run: as §1

ES1 (Ewing's Sarcoma) [22] = assay: as above
How it was run: as §1

[23] = tested on: SW1417 (Colorectal Carcinoma); assay: as above
How it was run: as §1

[24] = tested on: MKN28 (Gastric Carcinoma); assay: as above
How it was run: as §1

[25] = tested on: DND-41 (T-Lymphoblastic Leukemia); assay: as above
How it was run: as §1

[26] = tested on: SW837 (Colorectal Carcinoma); assay: as above
How it was run: as §1

[27] = tested on: GR-ST (B-Lymphoblastic Leukemia); assay: as above
How it was run: as §1

[28] = tested on: BFTC-905 (Bladder Carcinoma); assay: as above
How it was run: as §1

[29] = tested on: CAMA-1 (Breast Carcinoma); assay: as above
How it was run: as §1

[30] = tested on: L-540 (Hodgkin's Lymphoma); assay: as above
How it was run: as §1

[31] = tested on: BL-41 (Burkitt's Lymphoma); assay: as above
How it was run: as §1

ES8 (Ewing's Sarcoma) [32] = assay: as above
How it was run: as §1

WM-115 (Melanoma) [33] = assay: as above
How it was run: as §1

[34] = tested on: NCI-H1792 (Lung Adenocarcinoma); assay: as above
How it was run: as §1
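For Bliss excess, mean over the matrix in this document: after 72 h of two-drug dosing.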

Row | Compound | combination Emax (WIL2-NS (Non-Cancerous) [1]) | combination Emax [2] | combination Emax [3] | combination Emax (NCI-H2818 (Mesothelioma) [4]) | combination Emax (ES1 (Ewing's Sarcoma) [5]) | combination Emax [6] | combination Emax [7] | combination Emax [8] | combination Emax [9] | combination Emax [10] | combination Emax [11] | combination Emax [12] | combination Emax [13] | combination Emax [14] | combination Emax (ES8 (Ewing's Sarcoma) [15]) | combination Emax (WM-115 (Melanoma) [16]) | combination Emax [17] | Bliss excess (WIL2-NS (Non-Cancerous) [18]) | Bliss excess [19] | Bliss excess [20] | Bliss excess (NCI-H2818 (Mesothelioma) [21]) | Bliss excess (ES1 (Ewing's Sarcoma) [22]) | Bliss excess [23] | Bliss excess [24] | Bliss excess [25] | Bliss excess [26] | Bliss excess [27] | Bliss excess [28] | Bliss excess [29] | Bliss excess [30] | Bliss excess [31] | Bliss excess (ES8 (Ewing's Sarcoma) [32]) | Bliss excess (WM-115 (Melanoma) [33]) | Bliss excess [34]
1 | CS(=O)(=O)CCNCc1ccc(-c2ccc3ncnc(Nc4ccc(OCc5cccc(F)c5)c(Cl)c4)c3c2)o1 [Lapatinib] + Cn1cnc2c(F)c(Nc3ccc(Br)cc3Cl)c(C(=O)NOCCO)cc21 [Selumetinib] (first compound max 10 µM, 7x7, partner max 10 µM) | 0.321 | 0.707 | 0.564 | 0.28 | 0.452 | 0.698 | 0.545 | 0.871 | 0.732 | 0.969 | 0.804 | 0.187 | 0.511 | 0.907 | 0.555 | 0.531 | 0.527 | 0.0098 | 0.0398 | -0.0324 | -0.0295 | 0.0071 | 0.0847 | 0.0057 | 0.0178 | 0.0194 | -0.03 | 0.0619 | -0.0009 | -0.0147 | -0.0346 | 0.036 | 0.0205 | 0.0012
2 | C[C@@H](Oc1cc(-c2cnn(C3CCNCC3)c2)cnc1N)c1c(Cl)ccc(F)c1Cl [Crizotinib] + Cn1cnc2c(F)c(Nc3ccc(Br)cc3Cl)c(C(=O)NOCCO)cc21 [Selumetinib] (first compound max 10 µM, 7x7, partner max 10 µM) | 0.485 | 1 | 0.947 | 0.329 | 0.843 | 0.608 | 0.516 | 0.971 | 0.562 | 0.972 | 0.912 | 0.156 | 0.553 | 1 | 0.921 | 0.476 | 0.917 | -0.026 | -0.0195 | 0.0366 | -0.0068 | -0.0239 | 0.0093 | 0.016 | 0.0194 | -0.0422 | -0.0439 | -0.0138 | -0.042 | -0.0703 | -0.0265 | -0.0482 | -0.0547 | -0.022
3 | Cc1c2c(nn1C)CSCc1cc(n(C)n1)CSc1cc(c3ccccc3c1)OCCCc1c(C(=O)O)n(C)c3c-2c(Cl)ccc13 [AZD5991] + CS(=O)(=O)CCNCc1ccc(-c2ccc3ncnc(Nc4ccc(OCc5cccc(F)c5)c(Cl)c4)c3c2)o1 [Lapatinib] (first compound max 1 µM, 7x7, partner max 10 µM) | 0.27 | 0.927 | 0.52 | 0.277 | 0.9 | 0.192 | 0.41 | 0.792 | 0.303 | 0.955 | 0.407 | 0.791 | 0.996 | 1 | 0.763 | 0.32 | 0.453 | -0.118 | 0.0023 | 0.0139 | -0.0282 | -0.0151 | -0.0142 | -0.0112 | -0.016 | -0.0176 | 0.0082 | 0.023 | -0.0054 | 0.04 | -0.0004 | 0.109 | -0.0164 | 0.0446
4 | Cc1c2c(nn1C)CSCc1cc(n(C)n1)CSc1cc(c3ccccc3c1)OCCCc1c(C(=O)O)n(C)c3c-2c(Cl)ccc13 [AZD5991] + Nc1ccn([C@@H]2O[C@H](CO)[C@@H](O)C2(F)F)c(=O)n1 [Gemcitabine] (first compound max 1 µM, 7x7, partner max 0.3 µM) | 0.942 | 0.991 | 0.222 | 0.358 | 1 | 0.332 | 0.161 | 0.848 | 0.273 | 0.791 | 0.909 | 0.942 | 1 | 1 | 1 | 0.431 | 0.774 | -0.0263 | 0.0073 | 0.0045 | -0.0771 | 0.0102 | 0.0394 | -0.0367 | 0.021 | -0.0606 | -0.0516 | -0.0194 | 0.133 | 0.0162 | -0.0263 | -0.0121 | -0.0572 | -0.0308
